In patent US20050009834A1, “Azole compounds, process for preparation of the same and use thereof” (priority 2001, published 2005):

Legend:
Plutella xylostella = experiment: insecticidal effect for Plutella xylostella (cabbage leaf dip); format: in vivo; conditions: 100 ppm, second-instar larvae, fifth day after, 24° C.
Description: 1) insecticidal effect for Plutella xylostella One 7 to 8-leave stage foliage leaf of cabbage was cut off and dipped in a pesticidal solution for a few seconds, which was prepared by dissolving 5 mg of test compound (represented by the compound Nos. in the above Examples) in 0.5 ml of acetone containing Tween 20 (trade name) and then diluting it to the prescribed concentration (100 ppm) with Dain water diluted 5000-fold. After drying the pesticidal solution, the leaf was put into an ice cream cup (180 ml), and ten second-instar larvae of Plutella xylostella were set free. The cup was left in a temperature-controlled breeding room (24° C.). On the fifth day after, the number of surviving Plutella xylostella was examined. The rate of dead pests was calculated by the following formula, and the result was shown in table 39. rate of dead pests (%)=(number of dead pests/number of test pests)×100

Tetranychus urticae = experiment: acaricidal effect for Tetranychus urticae (spray on string bean); format: in vivo; conditions: 500 ppm, female imagoes, survivors counted on second and seventh day after treatment, 25° C.
Description: 2) acaricidal effect for Tetranychus urticae Ten female imagoes Tetranychus urticae were set free on a string bean wherein first leaves had just developed. On the following day, the pesticidal solution, which was prepared by dissolving 5 mg of test compound (represented by the compound Nos. in the above Examples) in 0.5 ml of acetone containing Tween 20 (trade name) and then diluting it to the prescribed concentration (500 ppm) with Dain water diluted 5000-fold, was sprayed with spray gun in the amounts wherein the pesticidal solution dripped. The string bean was left in a temperature-controlled breeding room (25° C.). On the second and seventh day after treatment, the number of surviving Tetranychus urticae was examined. The rate of decrease was calculated by the following formula, and the result was shown in table 40. rate of decrease (%)=(1−(S2/(5.59×(10+(10+S1)/2+S1))))×100 • S1; the number of surviving imagoes on the second day after S2; the number of surviving imagoes on the seventh day after […]

Row | Structure (SMILES) | melting point [°C] | Rate of dead pests (%) (Plutella xylostella) | Rate of decrease (%) (Tetranychus urticae)
1 | Cc1nc(-c2ccccc2F)cn1-c1ccc(COc2ncc(C(F)(F)F)cc2Cl)cc1 [I-63, 1-[4-[3-chloro-5-(trifluoromethyl)pyridin-2-yloxymethyl]phenyl]-4-(2-fluorophenyl)-2-methylimidazole] | 109 |  | 
2 | Cc1nc(-c2c(F)cccc2Cl)nn1-c1ccc(COc2ccc(C(F)(F)F)cc2Cl)cc1 [T-12] |  | 100 | 98
